Data: PubChem BioAssay AID2060492 (Molecular Pharmacology Branch, DTP, NCI, 2025)
pIC50: −log10 of the molar value.

System: 695427-040-R-J1-PDC complex spheroids, viability percent T/C
Assay: Anticancer human tumor 695427-040-R-J1-PDC patient-derived colon adenocarcinoma cell line growth inhibition [GQUAD]
Settings: for pIC50: curve of first compound; for viability, T/C: stronger effect = lower value
Text: DNA G-quadruplex Stabilizer Agents in Combinations in Complex Spheroids
A high-throughput screen of multi-cell type tumor spheroids was designed to identify active combinations of DNA G-quadruplex stabilizer agents and targeted small molecules. Complex spheroids include a stromal component modeled by human endothelial cells (HUVEC) and fibroblasts modeled by human mesenchymal stem cells (MSCs). The concentration ranges selected for each drug and investigational agent were based upon clinically achievable concentrations if the clinical Cmax of the agent was known.
Compounds. The drugs and investigational agents: pidnarulex (CX-5461; NSC782164), APTO-253 (NSC789042), BRACO-19 (NSC847499), peposertib (NSC802822), ceralasertib (NSC780249), elimusertib (NSC800525), camonsertib (NSC841442), AZD-1390 (NSC803789), olaparib (NSC753686), talazoparib (NSC767125), ART-558 (NSC835418), sotorasib (NSC818433), MRTX-1133 (NSC836407), SN-38 (NSC673596), topotecan (NSC609699), etoposide (NSC141540), doxorubicin (NSC123127), gemcitabine (NSC613327), 5-fluorouracil (NSC19893), paclitaxel (NSC125973), vemurafenib (NSC761431), panobinostat (NSC761190), R-306465 (JNJ-16241199; NSC773264), adavosertib (NSC754352), TP-3654 (NSC805149), carboplatin (NSC241240), KSQ-4279 (NSC840948), and staurosporine (NSC755774) were obtained from the National Cancer Institute (NCI) Developmental Therapeutics Program Chemical Repository (34). The FDA-approved anticancer drug set is available from the NCI Developmental Therapeutics Program. […] The stock solutions were prepared in dimethyl sulfoxide (DMSO, Sigma-Aldrich, St. Louis, MO, cat. D2650) at 800-fold the tested concentration and stored at -70 degrees C prior to their use. All drugs and investigational agents were tested over a range starting from a high concentration at or near the clinical Cmax and decreasing in half-log increments. If the clinical Cmax for an agent had not been determined, the highest concentration tested was 10 microM.
2.3 Cell Culture. All cells were maintained in an incubator at 37 degrees C and 5% CO2 with 95% humidity. The PDC lines were cultured according to standard operating procedures established by the NCI PDMR. All PDCs were thawed and cultured in Matrigel-coated flasks prepared with a working solution of 1X Ham's F-12 nutrient mix, without supplementation (Invitrogen, cat. 11765054), 100 U/mL penicillin-streptomycin (Invitrogen, cat. 15140122), and 2.5% Matrigel (Corning Inc., cat. 354248) for the first three passages. The 857933-349-R-J2-PDC line was cultured in 6C/Colon 1B media, which includes advanced DMEM/F-12 (Thermo Fisher Scientific, cat. 12634028), 10 mM HEPES (Thermo Fisher Scientific, cat. 15630080), 1X GlutaMAX supplement (Thermo Fisher Scientific, cat. 35050061), 0.1 mg/mL primocin (InvivoGen, cat. ant-pm-2), 10% defined fetal bovine serum, heat inactivated (HyClone Laboratories Inc., cat. SH30070.03HI), 50% L-WRN conditioned media (ATCC, cat. CRL-3276), 1.25 mM N-Acetyl-L-cysteine (Sigma-Aldrich, cat. A9165), 10 mM nicotinamide (Sigma-Aldrich, cat. N0636), 1X B-27 supplement (Thermo Fisher Scientific, cat. 17504044), 1X N-2 supplement (Thermo Fisher Scientific, cat. 17502048), 10 microM Y-27632 dihydrochloride (Tocris Bioscience, cat. 1254), and 50 ng/mL human EGF recombinant protein (Thermo Fisher Scientific, cat. PHG0311). The 485176-168-R4-J1-PDC line was cultured in Panc media, which includes all 6C/Colon 1B media components plus 100 ng/mL human FGF-10 (Thermo Fisher Scientific, cat. 100-26), 500 nM SB-431542 (Selleckchem, cat. S1067), and gastrin (Tocris, cat. 3006).
[…]

[1] = second compound 0.0316 µM, first compound 0.0316 µM
[2] = second compound 0.0316 µM, first compound 0.1 µM
[3] = second compound 0.0316 µM, first compound 0.316 µM
[4] = second compound 0.0316 µM, first compound 1 µM
[5] = second compound 0.0316 µM, first compound 3.16 µM
[6] = second compound 0.0316 µM, first compound 10 µM
[7] = second compound 0.1 µM, first compound 0.0316 µM
[8] = second compound 0.1 µM, first compound 0.1 µM
[9] = second compound 0.1 µM, first compound 0.316 µM
[10] = second compound 0.1 µM, first compound 1 µM
[11] = second compound 0.1 µM, first compound 3.16 µM
[12] = second compound 0.1 µM, first compound 10 µM
[13] = second compound 0.316 µM, first compound 0.0316 µM
[14] = second compound 0.316 µM, first compound 0.1 µM
[15] = second compound 0.316 µM, first compound 0.316 µM
[16] = second compound 0.316 µM, first compound 1 µM
[17] = second compound 0.316 µM, first compound 3.16 µM
[18] = second compound 0.316 µM, first compound 10 µM
[19] = second compound 1 µM, first compound 0.0316 µM
[20] = second compound 1 µM, first compound 0.1 µM
[21] = second compound 1 µM, first compound 0.316 µM
[22] = second compound 1 µM, first compound 1 µM
[23] = second compound 1 µM, first compound 3.16 µM
[24] = second compound 1 µM, first compound 10 µM
[25] = second compound 3.16 µM, first compound 0.0316 µM
[26] = second compound 3.16 µM, first compound 0.1 µM
[27] = second compound 3.16 µM, first compound 0.316 µM
[28] = second compound 3.16 µM, first compound 1 µM
[29] = second compound 3.16 µM, first compound 3.16 µM
[30] = second compound 3.16 µM, first compound 10 µM
[31] = second compound 10 µM, first compound 0.0316 µM
[32] = second compound 10 µM, first compound 0.1 µM
[33] = second compound 10 µM, first compound 0.316 µM
[34] = second compound 10 µM, first compound 1 µM
[35] = second compound 10 µM, first compound 3.16 µM
[36] = second compound 10 µM, first compound 10 µM
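Also: spheroids exposed to compounds for seven days before readout.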

## CC(C)n1c(=O)n(C)c2cnc3cc(F)c(-c4ccc(OCCCN5CCCCC5)nc4)cc3c21 + CN(C)c1ccc(Nc2c3ccc(NC(=O)CCN4CCCC4)cc3nc3cc(NC(=O)CCN4CCCC4)ccc23)cc1
Second compound 0.0316 µM
  pIC50: < 5.00
Second compound 0.1 µM
  pIC50: < 5.00
Second compound 0.316 µM
  pIC50: < 5.00
Second compound 1 µM
  pIC50: < 5.00
Second compound 3.16 µM
  pIC50: < 5.00
Second compound 10 µM
  pIC50: < 5.00
[1]
  viability, T/C: 113%
[2]
  viability, T/C: 96.1%
[3]
  viability, T/C: 111%
[4]
  viability, T/C: 101%
[5]
  viability, T/C: 104%
[6]
  viability, T/C: 66%
[7]
  viability, T/C: 107%
[8]
  viability, T/C: 97.3%
[9]
  viability, T/C: 106%
[10]
  viability, T/C: 102%
[11]
  viability, T/C: 110%
[12]
  viability, T/C: 62.5%
[13]
  viability, T/C: 108%
[14]
  viability, T/C: 98.5%
[15]
  viability, T/C: 102%
[16]
  viability, T/C: 106%
[17]
  viability, T/C: 100%
[18]
  viability, T/C: 67.4%
[19]
  viability, T/C: 101%
[20]
  viability, T/C: 102%
[21]
  viability, T/C: 110%
[22]
  viability, T/C: 105%
[23]
  viability, T/C: 100%
[24]
  viability, T/C: 62.9%
[25]
  viability, T/C: 86.4%
[26]
  viability, T/C: 101%
[27]
  viability, T/C: 94.4%
[28]
  viability, T/C: 98.8%
[29]
  viability, T/C: 95.5%
[30]
  viability, T/C: 68.1%
[31]
  viability, T/C: 89.4%
[32]
  viability, T/C: 92.2%
[33]
  viability, T/C: 93.3%
[34]
  viability, T/C: 89.3%
[35]
  viability, T/C: 93.7%
[36]
  viability, T/C: 59.4%

## CC1COCCN1c1cc(-c2ccnn2C)c2ccnc(-c3ccn[nH]3)c2n1 (centres undefined) + CN(C)c1ccc(Nc2c3ccc(NC(=O)CCN4CCCC4)cc3nc3cc(NC(=O)CCN4CCCC4)ccc23)cc1
Second compound 0.0316 µM
  pIC50: 5.90
Second compound 0.1 µM
  pIC50: 5.87
Second compound 0.316 µM
  pIC50: 5.91
Second compound 1 µM
  pIC50: 6.03
Second compound 3.16 µM
  pIC50: 6.13
Second compound 10 µM
  pIC50: 6.34
[1]
  viability, T/C: 95.2%
[2]
  viability, T/C: 78.8%
[3]
  viability, T/C: 63%
[4]
  viability, T/C: 51%
[5]
  viability, T/C: 44.9%
[6]
  viability, T/C: 39.4%
[7]
  viability, T/C: 100%
[8]
  viability, T/C: 75.9%
[9]
  viability, T/C: 63.9%
[10]
  viability, T/C: 52%
[11]
  viability, T/C: 45.3%
[12]
  viability, T/C: 39.1%
[13]
  viability, T/C: 87.7%
[14]
  viability, T/C: 76.3%
[15]
  viability, T/C: 56.3%
[16]
  viability, T/C: 49.3%
[17]
  viability, T/C: 46.8%
[18]
  viability, T/C: 42.4%
[19]
  viability, T/C: 96.7%
[20]
  viability, T/C: 81.9%
[21]
  viability, T/C: 60.3%
[22]
  viability, T/C: 49.7%
[23]
  viability, T/C: 45.9%
[24]
  viability, T/C: 39.1%
[25]
  viability, T/C: 89.3%
[26]
  viability, T/C: 74.5%
[27]
  viability, T/C: 55.5%
[28]
  viability, T/C: 48.9%
[29]
  viability, T/C: 43.8%
[30]
  viability, T/C: 39.9%
[31]
  viability, T/C: 86%
[32]
  viability, T/C: 66.1%
[33]
  viability, T/C: 50.5%
[34]
  viability, T/C: 46.8%
[35]
  viability, T/C: 40.2%
[36]
  viability, T/C: 37%
